Laboratory results as given in the NIST ThermoML archive (doi:10.1021/je400178k).
± gives the expanded uncertainty stated by the source.

Experiment: molar heat capacity at constant pressure
Conditions: 101 kPa, Liquid, Small sample (50 mg) DSC

## NCCCN1CCOCC1 [N-(3-aminopropyl)morpholine]
298.15 K
  molar heat capacity at constant pressure: 296.2 ± 4.6 J/K/mol
303.15 K
  molar heat capacity at constant pressure: 298.2 ± 4.7 J/K/mol
308.15 K
  molar heat capacity at constant pressure: 299.6 ± 4.7 J/K/mol
313.15 K
  molar heat capacity at constant pressure: 301.2 ± 4.7 J/K/mol
318.15 K
  molar heat capacity at constant pressure: 302.8 ± 4.7 J/K/mol
323.15 K
  molar heat capacity at constant pressure: 304.5 ± 4.7 J/K/mol
328.15 K
  molar heat capacity at constant pressure: 306.1 ± 4.8 J/K/mol
333.15 K
  molar heat capacity at constant pressure: 307.9 ± 4.8 J/K/mol
338.15 K
  molar heat capacity at constant pressure: 309.6 ± 4.8 J/K/mol
343.15 K
  molar heat capacity at constant pressure: 311.3 ± 4.8 J/K/mol
348.15 K
  molar heat capacity at constant pressure: 312.7 ± 4.9 J/K/mol
353.15 K
  molar heat capacity at constant pressure: 313.4 ± 4.9 J/K/mol

## OCCN1CCNCC1 [N-(2-hydroxyethyl)piperazine]
298.15 K
  molar heat capacity at constant pressure: 285 ± 4.5 J/K/mol
303.15 K
  molar heat capacity at constant pressure: 289.9 ± 4.6 J/K/mol
308.15 K
  molar heat capacity at constant pressure: 292.9 ± 4.6 J/K/mol
313.15 K
  molar heat capacity at constant pressure: 296 ± 4.6 J/K/mol
318.15 K
  molar heat capacity at constant pressure: 298.9 ± 4.7 J/K/mol
323.15 K
  molar heat capacity at constant pressure: 301.7 ± 4.7 J/K/mol
328.15 K
  molar heat capacity at constant pressure: 305 ± 4.8 J/K/mol
333.15 K
  molar heat capacity at constant pressure: 308.1 ± 4.8 J/K/mol
338.15 K
  molar heat capacity at constant pressure: 311 ± 4.8 J/K/mol
343.15 K
  molar heat capacity at constant pressure: 313.9 ± 4.9 J/K/mol
348.15 K
  molar heat capacity at constant pressure: 316.5 ± 4.9 J/K/mol
353.15 K
  molar heat capacity at constant pressure: 319 ± 4.9 J/K/mol

## CN1CCNCC1 [N-methylpiperazine]
298.15 K
  molar heat capacity at constant pressure: 213.9 ± 3.6 J/K/mol
303.15 K
  molar heat capacity at constant pressure: 214.4 ± 3.6 J/K/mol
308.15 K
  molar heat capacity at constant pressure: 215 ± 3.6 J/K/mol
313.15 K
  molar heat capacity at constant pressure: 215.7 ± 3.6 J/K/mol
318.15 K
  molar heat capacity at constant pressure: 216.4 ± 3.7 J/K/mol
323.15 K
  molar heat capacity at constant pressure: 216.9 ± 3.7 J/K/mol
328.15 K
  molar heat capacity at constant pressure: 217.3 ± 3.7 J/K/mol
333.15 K
  molar heat capacity at constant pressure: 217.2 ± 3.7 J/K/mol
338.15 K
  molar heat capacity at constant pressure: 215.5 ± 3.6 J/K/mol
343.15 K
  molar heat capacity at constant pressure: 216.2 ± 3.7 J/K/mol
348.15 K
  molar heat capacity at constant pressure: 217.6 ± 3.7 J/K/mol
353.15 K
  molar heat capacity at constant pressure: 218 ± 3.7 J/K/mol

## OCCN1CCOCC1 [4-morpholineethanol]
298.15 K
  molar heat capacity at constant pressure: 263.9 ± 4.2 J/K/mol
303.15 K
  molar heat capacity at constant pressure: 265.3 ± 4.3 J/K/mol
308.15 K
  molar heat capacity at constant pressure: 267.1 ± 4.3 J/K/mol
313.15 K
  molar heat capacity at constant pressure: 269.2 ± 4.3 J/K/mol
318.15 K
  molar heat capacity at constant pressure: 270.8 ± 4.3 J/K/mol
323.15 K
  molar heat capacity at constant pressure: 272.6 ± 4.3 J/K/mol
328.15 K
  molar heat capacity at constant pressure: 274.3 ± 4.4 J/K/mol
333.15 K
  molar heat capacity at constant pressure: 276.2 ± 4.4 J/K/mol
338.15 K
  molar heat capacity at constant pressure: 278.7 ± 4.4 J/K/mol
343.15 K
  molar heat capacity at constant pressure: 281 ± 4.4 J/K/mol
348.15 K
  molar heat capacity at constant pressure: 283.2 ± 4.5 J/K/mol
353.15 K
  molar heat capacity at constant pressure: 284.9 ± 4.5 J/K/mol

## CN1CCN(C)CC1 [1,4-dimethylpiperazine]
298.15 K
  molar heat capacity at constant pressure: 216.5 ± 3.7 J/K/mol
303.15 K
  molar heat capacity at constant pressure: 221.7 ± 3.7 J/K/mol
308.15 K
  molar heat capacity at constant pressure: 222.1 ± 3.7 J/K/mol
313.15 K
  molar heat capacity at constant pressure: 223.4 ± 3.7 J/K/mol
318.15 K
  molar heat capacity at constant pressure: 224.6 ± 3.8 J/K/mol
323.15 K
  molar heat capacity at constant pressure: 225.3 ± 3.8 J/K/mol
328.15 K
  molar heat capacity at constant pressure: 225.7 ± 3.8 J/K/mol
333.15 K
  molar heat capacity at constant pressure: 227.5 ± 3.8 J/K/mol
338.15 K
  molar heat capacity at constant pressure: 228.5 ± 3.8 J/K/mol
343.15 K
  molar heat capacity at constant pressure: 229.6 ± 3.8 J/K/mol
348.15 K
  molar heat capacity at constant pressure: 231.7 ± 3.8 J/K/mol
353.15 K
  molar heat capacity at constant pressure: 235.9 ± 3.9 J/K/mol
